Measurements: a melting point compilation (Tetko et al.)

SMILES	melting point
COc1cc(OC)c(/C=C/C(c2ccc(OC)c(NC(=O)CC(=O)O)c2)S(=O)(=O)C(/C=C/c2c(OC)cc(OC)cc2OC)c2ccc(OC)c(NC(=O)CC(=O)O)c2)c(OC)c1 (configuration not stated)	118 to 121 °C
CS(C)(=O)=NC(=O)c1cc(O)ccc1[N+](=O)[O-]	146 to 149 °C
CCC1(CC)c2cc(-c3nc4ccccc4s3)ccc2-c2ccc(N(Cc3ccccc3)c3ccc4c(c3)C(CC)(CC)c3cc(-c5nc6ccccc6s5)ccc3-4)cc21	174 to 176 °C
COc1cc(OC)c(/C=C/C(c2ccc(OC)c(NC(=O)COC(C)=O)c2)S(=O)(=O)C(/C=C/c2c(OC)cc(OC)cc2OC)c2ccc(OC)c(NC(=O)COC(C)=O)c2)c(OC)c1 (configuration not stated)	192 to 194 °C
CC(C)(C)c1cc(CCC(=O)OCC(COC(=O)CCc2cc(C(C)(C)C)c(O)c(C(C)(C)C)c2)(COC(=O)CCc2cc(C(C)(C)C)c(O)c(C(C)(C)C)c2)COC(=O)CCc2cc(C(C)(C)C)c(O)c(C(C)(C)C)c2)cc(C(C)(C)C)c1O	55 to 85 °C
CC(C)[C@H](NC(=O)N(C)Cc1nc2ccccc2[nH]1)C(=O)N[C@@H](Cc1ccccc1)[C@H](O)[C@H](O)[C@H](Cc1ccccc1)NC(=O)[C@@H](NC(=O)N(C)Cc1nc2ccccc2[nH]1)C(C)C	107 to 109 °C
CS(C)(=O)=NS(=O)(=O)c1cccc(F)c1C#N	184 °C
Clc1c(Br)c(Cl)c(COCc2c(Cl)c(Br)c(Cl)c(Br)c2Br)c(Br)c1Br	274 to 276 °C
CCCCCCCCCCCCCCCC(=O)OCC(CSCC(NC(=O)OCc1cccc2c1Cc1ccccc1-2)C(=O)OC(C)(C)C)OC(=O)CCCCCCCCCCCCCCC (mixture of isomers)	52 to 54 °C
[C-]#[N+]C1(C)Cc2ccccc2C(=C)c2ccccc21 (configuration not stated)	146 to 148 °C
CCC(CC)Nc1cc(C)nc(Oc2c(C)cc(C)cc2C)c1[N+](=O)[O-]	160 to 162 °C
O=c1cc(-c2ccc(OCCOCCOCCOCCOCCOCCOCCOCCOCCOc3ccc(-c4cc(=O)c5c(O)cc(O)cc5o4)cc3)cc2)oc2cc(O)cc(O)c12	135 to 137 °C
CCC(C)(C)c1ccc(OCC(=O)Nc2cccc(C(=O)Nc3[nH]n(-c4c(Cl)cc(Cl)cc4Cl)c(=O)c3OC(=O)Nc3ccccc3)c2)c(C(C)(C)CC)c1	72 to 77 °C
Cc1c(C2=CC(c3c(C)n(Cc4ccc(Cl)cc4)c4ccc([N+](=O)[O-])cc34)(c3c(C)n(Cc4ccc(Cl)cc4)c4ccc([N+](=O)[O-])cc34)OC2=O)c2cc([N+](=O)[O-])ccc2n1Cc1ccc(Cl)cc1	227 to 228 °C
CCCc1c(CC[Si](Cl)(Cl)Cl)c(CC[Si](Cl)(Cl)Cl)c(CC[Si](Cl)(Cl)Cl)c(CC[Si](Cl)(Cl)Cl)c1CC[Si](Cl)(Cl)Cl	211 to 216 °C
CCC1=C(C#N)c2cc3c(c(O)c2CC1)C(=O)c1c(O)cccc1C3=O	227 to 228 °C
CC(C)(C)c1cc(CCC(=O)NN=C(O)c2cc(-c3ccc(C(=O)O)c(C(O)=NNC(=O)CCc4cc(C(C)(C)C)c(O)c(C(C)(C)C)c4)c3)ccc2C(=O)O)cc(C(C)(C)C)c1O	291 to 293 °C
